Source: patent US5837728A, “9-cis retinoic acid esters and amides and uses thereof” (priority 1995, dated 1998)

Assays:
retinoid receptors = conditions: all six subfamilies of retinoid receptors; cited from earlier work
[1] = system: donor sites (partial-thickness wounds); conditions: average, silver sulfadiazine cream containing epidermal growth factor; cited from earlier work
[2] = system: ulceration of both lower legs; conditions: one patient, livedoid vasculitis; cited from earlier work
sebaceous gland = assay: Oral hamster sebaceous gland reduction assay; assay type: in vivo, male Syrian golden hamsters; set-up: key to the marks not given beside the values; conditions: 32 mg/kg
Description: An oral assay for hamster sebaceous gland reduction is conducted.
Hamsters are dosed orally with the test compound and vehicle alone. The reduction in sebaceous gland size is estimated microscopically in relation to the control. The assay is unique and proprietary to Ortho Pharmaceutical Corp. and is based upon the work of Plewig et al. (1977) and Gomex et al. (1980). Plewig, et al., Hamster Ear Model for Sebaceous Glands, J. Invest. Derm. 68: 171-176 (1977). Gomez, et al., Effect of 13-cis-Retinoic Acid on the Hamster Flank Organ, J. Invest. Derm. 74: 392-397 (1980).
For oral (p.o.) studies, male Syrian golden hamsters are […] at 5 ml/kg, once daily, five consecutive days/week for two or three weeks. Modified but similar dosing schedules could be used. Control hamsters are dosed with vehicle alone at 5 ml/kg. Following final treatment (up to 72 hours), the hamsters are sacrificed in a CO2 atmosphere. Samples of each test site are placed into 10% buffered formalin and histologically prepared. Serial sections of each sample are stained (H&E) and examined microscopically.
The reduction in sebaceous gland size is estimated microscopically in relation to the control treated sites. To quantify sebaceous gland size, cross-sectional areas are measured with an image analyzer system.

[3] = system: skin (inner forearm, cheek); assay: Topical assay for comparative dermal irritation in human subjects; assay type: in vivo, human (patients)
Description: 2-(9-cis-retinoyloxy)-4-methoxyacetophenone is evaluated in a study of its potential to produce dermal irritation. Comparisons are made of tretinoin, isotretinoin, 2-(9-cis-retinoyloxy)-4-methoxyacetophenone, and the vehicle solution.
In the first test, four solutions are used. The control consists of vehicle solution, namely a solution of 60% by volume ethanol and 40% by volume polyethylene glycol. The other three solutions are 0.025% solutions of tretinoin, isotretinoin, or 2-(9-cis-retinoyloxy)-4-methoxyacetophenone in 60% by volume ethanol and 40% by volume polyethylene glycol. Four patients paint two saturated cotton swabs of each of the four solutions on four different areas of the inner forearm, twice daily for ten days.
In the second test, four other solutions are used. The control consists of vehicle solution, namely a solution of 90% by volume ethanol and 10% by volume polyethylene glycol. The other three solutions are 0.075% solutions of tretinoin, isotretinoin, or 2-(9-cis-retinoyloxy)-4-methoxyacetophenonein 90% by volume ethanol and 10% by volume polyethylene glycol. Four patients paint two saturated cotton swabs of each of the four solutions on four different areas of the inner forearm, twice daily for ten days. Only one subject experiences an irritant reaction. […] By day nine, both areas are still reacting, the tretinoin area more intensely than the isotretinoin area. There is no reaction in either the 2-(9-cis-retinoyloxy)-4-methoxyacetophenone or the control areas.
In the third test, three solutions are used. The three solutions are 0.075% solutions of tretinoin, isotretinoin, or 2-(9-cis-retinoyloxy)-4-methoxyacetophenone in 90% by volume ethanol and 10% by volume polyethylene glycol. Four patients paint two saturated cotton swabs of the 2-(9-cis-retinoyloxy)-4-methoxyacetophenone solution twice daily on one cheek of their faces. To the other cheek they apply two saturated cotton swabs of either tretinoin or isotretinoin.
The tests are carried out in double-blind fashion, that is, neither the subjects nor the investigator know the contents of the solutions during the study.
Clinical assessments are made daily of the subjects cheeks. All subjects develop irritant reactions by the third or fourth day of the study.

CC1=C(/C=C/C(C)=C\C=C\C(C)=C\C(=O)O)C(C)(C)CCC1 [9-cis-retinoic acid]
Equilibrium constants in competitive binding (retinoid receptors): lowest equilibrium constants of all retinoids for all six subfamilies of retinoid receptors

epidermal growth factor
Acceleration of donor site healing time [1]: 1.5 days

O=C(c1ccc(F)cc1)C1CCN(CCn2c(=O)[nH]c3ccccc3c2=O)CC1 [Ketanserin]
Effect on recalcitrant ulceration [2]: healed the lesions in a patient with recalcitrant ulceration of both lower legs

CC1=C(/C=C/C(C)=C/C=C/C(C)=C\C(=O)O)C(C)(C)CCC1 [13-cis-retinoic acid]
Sebaceous gland reduction (sebaceous gland): ++
Irritant reactions, inner forearm ([3]; first test, 0.025% solution, twice daily for ten days): No irritant reactions occur
Irritant reaction, inner forearm ([3]; second test, 0.075% solution, twice daily for ten days, one subject of four reacted): On day seven, the isotretinoin area begins reacting with redness and peeling
Irritation of the cheeks ([3]; third test, 0.075% solution, twice daily, six days): reactions which are so intense with redness and peeling that all subjects discontinue application on or before the sixth day
